Results taken from paper PMC5445473, “Identification of Enterococcus faecalis enzymes with azoreductases and/or nitroreductase activity” (BMC Microbiology, 2017).

Columns and labels:
Test in all cases: LC-ESI-MS of natively purified enzyme; activity of apo-enzyme restored by FMN
Type in all cases: binding
Conditions in all cases: native purification; apo-enzyme assay with 5 uM FMN, pH 7, 35 °C
[1] = molecular target: T1, EF0655 (Enterococcus faecalis, UniProt Q838B7)
T1 construct: gene EF_0655; E. coli XL1Blue; about 22 kDa; forward primer starts after the initiator Met
T1 sequence (Q838B7 2-198): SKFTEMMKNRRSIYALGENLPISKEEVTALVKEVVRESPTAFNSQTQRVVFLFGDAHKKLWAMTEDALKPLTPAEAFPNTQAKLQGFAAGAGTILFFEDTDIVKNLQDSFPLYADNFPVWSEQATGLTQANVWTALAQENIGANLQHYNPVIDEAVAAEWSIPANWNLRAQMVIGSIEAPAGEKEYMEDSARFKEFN

[2] = molecular target: T2, EF0648 (Enterococcus faecalis, UniProt Q838C2)
T2 construct: gene EF_0648; E. coli XL1Blue; about 25 kDa
T2 sequence (Q838C2 2-205): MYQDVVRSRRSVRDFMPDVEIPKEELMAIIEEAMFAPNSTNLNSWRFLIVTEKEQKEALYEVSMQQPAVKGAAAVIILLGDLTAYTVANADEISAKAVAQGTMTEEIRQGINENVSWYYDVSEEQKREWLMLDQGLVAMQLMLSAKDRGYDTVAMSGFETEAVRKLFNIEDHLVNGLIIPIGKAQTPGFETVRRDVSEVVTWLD

[3] = molecular target: T3, EF0404 (Enterococcus faecalis, UniProt Q838N5)
T3 construct: gene EF_0404; E. coli XL1Blue; about 25 kDa; forward primer starts after the initiator Met
T3 sequence (Q838N5 2-211): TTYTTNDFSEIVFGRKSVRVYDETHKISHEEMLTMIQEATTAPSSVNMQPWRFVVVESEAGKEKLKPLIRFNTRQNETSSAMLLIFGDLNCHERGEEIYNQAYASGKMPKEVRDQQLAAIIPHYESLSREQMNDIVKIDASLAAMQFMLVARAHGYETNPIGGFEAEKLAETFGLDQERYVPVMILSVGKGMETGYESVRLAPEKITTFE

[4] = molecular target: T4, EF1181 (Enterococcus faecalis, UniProt Q836D4)
T4 construct: gene EF_1181; E. coli XL1Blue; about 30 kDa; forward primer starts after the initiator Met
T4 sequence (Q836D4 2-244): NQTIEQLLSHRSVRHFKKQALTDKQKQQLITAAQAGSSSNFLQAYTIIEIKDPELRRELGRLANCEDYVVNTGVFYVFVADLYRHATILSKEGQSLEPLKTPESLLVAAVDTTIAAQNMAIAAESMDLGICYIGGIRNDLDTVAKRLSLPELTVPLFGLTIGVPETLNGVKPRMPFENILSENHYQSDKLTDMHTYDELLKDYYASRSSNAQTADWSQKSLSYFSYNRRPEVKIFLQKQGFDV

[5] = molecular target: T5, AzoA (Enterococcus faecalis, UniProt Q831B2)
T5 construct: gene azoR; E. coli XL1Blue; about 25 kDa; forward primer starts after the initiator Met
T5 sequence (Q831B2 2-208): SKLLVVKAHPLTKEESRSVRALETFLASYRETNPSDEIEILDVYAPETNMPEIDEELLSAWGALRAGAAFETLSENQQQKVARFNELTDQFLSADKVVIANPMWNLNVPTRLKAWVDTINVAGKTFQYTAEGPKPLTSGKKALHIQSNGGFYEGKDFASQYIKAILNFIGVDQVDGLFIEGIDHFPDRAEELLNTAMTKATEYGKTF

**Q.** How did the “LC-ESI-MS of natively purified enzyme; activity of apo-enzyme restored by FMN” value (“LC-ESI-MS of natively purified enzyme” below) [1] turn out when `Cc1cc2nc3c(=O)[nH]c(=O)nc-3n(C[C@H](O)[C@H](O)[C@H](O)COP(=O)(O)O)c2cc1C` [FMN] was run?
**A.** Its value is “confirmed FMN presence for the enzymes purified using native conditions”.

**Q.** What about the “LC-ESI-MS of natively purified enzyme” value [2] of the same compound?
**A.** The value was “confirmed FMN presence for the enzymes purified using native conditions”.

**Q.** What about the “LC-ESI-MS of natively purified enzyme” value [3] of the same compound?
**A.** The value was “confirmed FMN presence for the enzymes purified using native conditions”.

**Q.** What about the “LC-ESI-MS of natively purified enzyme” value [4] of the same compound?
**A.** The value was “confirmed FMN presence for the enzymes purified using native conditions”.

**Q.** And the “LC-ESI-MS of natively purified enzyme” value [5]?
**A.** The value was “confirmed FMN presence for the enzymes purified using native conditions”.
